In patent US4689345A, “Oxygenated alkyl substituted bicyclo alkanes” (CBD Corporation, priority 1986, dated 1987):
Entries after “also recorded” stand apart in the source; their conditions may differ. Where two headings read alike, the source gives them in different places.

Key:
androgen receptor [1] = assay: Androgen receptor inhibition, Fusarium calorum; format: binding
Excerpt: (§1) In the second series of experiments using the compound of the invention 2-(5-hydroxyhept-1-yl) bicyclo[3.3.0]octan-7-one {hexahydro-4-(5-hydroxyheptyl)-2-(1H)-pentalenone} upon zeralenone and zearalanol production, zearalenone and zearalanol were chemically obtained from Sigma Chemical Co., St. Louis, Mo.

estrogen receptor [2] = assay: Estrogen receptor inhibition, Blastomyces; format: binding
progesterone receptor [3] = assay: Progesterone receptor inhibition, Sporotrichum; format: binding
estrogen receptor [4] = assay: Fungal estrogen receptor inhibition, Fusarium; format: binding
Saccharomyces cerevisiae = assay: Fermentation: ethanol production; format: cell-based
fungal infections = assay: Efficacy studies and toxicity studies
Excerpt: At the present time, therapies for fungal infections are not satisfactory and are frequently dangerous.

estrogen receptor [5] = format: binding, Histoplasma
estrogen receptor [6] = assay: Estrogen receptor inhibition, Cryptococci; format: binding
progesterone receptor [7] = assay: Progesterone receptor inhibition, Candida; format: binding
progesterone receptor [8] = assay: Progesterone receptor inhibition, Saccharomyces cerevisiae strains; conditions: DHT:anti-androgen 1:1,000
estrogen receptor [9] = assay: Estrogen receptor inhibition, Trichophyton; format: binding
androgen receptor [10] = format: binding; conditions: Histoplasma
androgen receptor [11] = assay: Androgen receptor inhibition, Coccodia; format: binding
progesterone receptor [12] = assay: Progesterone receptor inhibition, Pseudomonas testosteroni; format: binding
androgen receptor [13] = assay: Androgen receptor inhibition, Torulopsis; format: binding
progesterone receptor [14] = assay: Progesterone receptor inhibition, Norcardia; format: binding
progesterone receptor [15] = assay: Progesterone receptor inhibition, Fulsarium gravarium; format: binding
Excerpt: as §1

progesterone receptors = assay: Effect on progesterone receptors in breast capsule tissue; format: binding, human; conditions: breast capsule / hard band tissue
Procedure: (§2) "Hard fibrous band" formation was retarded around breast implants following augmentation surgery.
(§3) The tissues were evaluated, with appropriate controls, for effects by the novel anti-androgen.

estrogen receptor [16] = assay: Estrogen receptor inhibition in skin/tissue fibroblast lines; format: cell-based, human; conditions: DHT:compound 1:1,000; for interference with / inhibition of estrogen receptors: more than 400 experiments
Procedure: Explants of both normal and keloid skin and tissue fibroblast lines were established.
Hormonal receptor analyses on these tissues were performed by the method of Griffith et al., Journal of Clinical Investigation, Vol. 57, page 1340 (1978).

estrogen receptors = assay: Effect on estrogen receptors in breast capsule tissue; format: binding, human; conditions: breast capsule / hard band tissue
Procedure: as §2, §3

progesterone receptor [17] = assay: Effect on progesterone receptors in melanoma; format: binding; conditions: 1:1000 DHT to compound
[18] = target: T1, androgen receptor sites (keloid cytosol) (Homo sapiens, UniProt P10275); assay: Keloid cytosol steroid binding assay, androgen (DHT)
T1 construct: Surgical excision of keloids was performed from clinic and private patient populations; from tissue; host or cells: cytosol of surgically excised keloids
T1 sequence (P10275 1-920): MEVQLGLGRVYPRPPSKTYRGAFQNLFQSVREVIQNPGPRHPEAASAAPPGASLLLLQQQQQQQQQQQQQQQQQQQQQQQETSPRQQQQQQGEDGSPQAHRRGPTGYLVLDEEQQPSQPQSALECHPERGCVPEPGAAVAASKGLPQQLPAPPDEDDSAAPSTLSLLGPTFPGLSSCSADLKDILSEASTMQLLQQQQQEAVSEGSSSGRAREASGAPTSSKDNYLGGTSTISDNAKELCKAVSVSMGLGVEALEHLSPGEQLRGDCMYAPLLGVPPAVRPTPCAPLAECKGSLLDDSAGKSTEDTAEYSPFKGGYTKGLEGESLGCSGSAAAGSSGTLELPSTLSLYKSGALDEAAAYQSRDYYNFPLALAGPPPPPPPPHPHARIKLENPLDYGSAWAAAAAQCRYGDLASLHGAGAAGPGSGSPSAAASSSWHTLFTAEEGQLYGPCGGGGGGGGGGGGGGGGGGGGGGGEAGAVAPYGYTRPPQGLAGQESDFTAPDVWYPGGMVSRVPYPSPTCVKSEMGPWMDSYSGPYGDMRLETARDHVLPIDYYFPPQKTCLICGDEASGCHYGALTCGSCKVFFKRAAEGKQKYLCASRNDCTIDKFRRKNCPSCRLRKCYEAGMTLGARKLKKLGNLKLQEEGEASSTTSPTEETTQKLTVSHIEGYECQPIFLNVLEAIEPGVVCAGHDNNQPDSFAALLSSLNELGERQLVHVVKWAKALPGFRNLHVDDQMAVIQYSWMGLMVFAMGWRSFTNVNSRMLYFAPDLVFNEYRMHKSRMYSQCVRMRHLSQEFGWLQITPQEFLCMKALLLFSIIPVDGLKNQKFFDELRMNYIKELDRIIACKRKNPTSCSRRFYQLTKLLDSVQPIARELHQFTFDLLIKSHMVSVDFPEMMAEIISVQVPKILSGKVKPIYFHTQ

androgen receptor sites = target: T2, androgen receptor sites (Homo sapiens, UniProt P10275); assay: Retarding collagen formation through blockage of androgen receptor sites; conditions: Example 53
T2 construct: other tests of the document use human skin, keloid and fibroblasts with 3H-DHT
Procedure: Accordingly, to treat arteriosclerosis, an oral dosage unit formulation is produced which contains 2 mg of 2-(5-methoxyhept-1-yl)bicyclo [3.3.0]octan-7-one {hexahydro-4-(5-methoxyheptyl)-2(1H)-pentalenone}, which is delivered to a subject once every six hours.

[19] = listed as 2-(5-methoxyhept-1-yl)bicyclo[3.3.0]octan-7-one

CCC(O)CCCCC1CCC2CC(=O)CC12 (stereo not drawn) [Compound IV]
% Androgen Receptor Inhibition (androgen receptor [1]; DHT:anti-androgen 1:1): 29% | % Androgen Receptor Inhibition (androgen receptor [1]; DHT:anti-androgen 1:10): 37% | % Androgen Receptor Inhibition (androgen receptor [1]; DHT:anti-androgen 1:100): 79% | % Androgen Receptor Inhibition (androgen receptor [1]; DHT:anti-androgen 1:1,000): 90% | % Estrogen Receptor Inhibition (estrogen receptor [2]): 0% | % Progesterone Receptor Inhibition (progesterone receptor [3]): 7% | % Estrogen Receptor Inhibition (estrogen receptor [4]; fungal hormone Zeralanol): 0% | % Estrogen Receptor Inhibition (estrogen receptor [4]; fungal hormone Zeralenone): 0% | depression of ethanol production (Saccharomyces cerevisiae; other strains): one-eighth its normal rate | increase of ethanol production (Saccharomyces cerevisiae; some strains): as much as three times the natural rate | efficacy studies (fungal infections): efficacious | toxicity studies (fungal infections): safe | % Estrogen Receptor Inhibition (estrogen receptor [5]): 0% | % Estrogen Receptor Inhibition (estrogen receptor [6]): 0% | % Progesterone Receptor Inhibition (progesterone receptor [7]): 7% | % Progesterone Receptor Inhibition (progesterone receptor [8]; strain 1): 2% | % Progesterone Receptor Inhibition (progesterone receptor [8]; strain 2): 1% | % Progesterone Receptor Inhibition (progesterone receptor [8]; strain 3): 0% | % Progesterone Receptor Inhibition (progesterone receptor [8]; strain 4): 0% | % Progesterone Receptor Inhibition (progesterone receptor [8]; strain 5): 3% | % Progesterone Receptor Inhibition (progesterone receptor [8]; strain 6): 8% | % Progesterone Receptor Inhibition (progesterone receptor [8]; strain 7): 4% | % Estrogen Receptor Inhibition (estrogen receptor [9]): 0% | % Androgen Receptor Inhibition (androgen receptor [10]): 47% | % Androgen Receptor Inhibition (androgen receptor [11]): 67% | % Progesterone Receptor Inhibition (progesterone receptor [12]; strain 1): 0% | % Progesterone Receptor Inhibition (progesterone receptor [12]; strain 2): 0% | % Progesterone Receptor Inhibition (progesterone receptor [12]; strain 3): 0% | % Progesterone Receptor Inhibition (progesterone receptor [12]; strain 4): 0% | % Androgen Receptor Inhibition (androgen receptor [13]): 77% | % Progesterone Receptor Inhibition (progesterone receptor [14]): 0% | % Progesterone Receptor Inhibition (progesterone receptor [15]; DHT:anti-androgen 1:1): 1% | % Progesterone Receptor Inhibition (progesterone receptor [15]; DHT:anti-androgen 1:10): 3% | % Progesterone Receptor Inhibition (progesterone receptor [15]; DHT:anti-androgen 1:100): 6% | % Progesterone Receptor Inhibition (progesterone receptor [15]; DHT:anti-androgen 1:1,000): 4%

CCC(CCCCC1CCC2CC(=O)CC12)OC (stereo not drawn) [Compound V, 2-(5-Methoxyhept-1-yl)bicyclo[3.3.0]octan-7-one]
effect on progesterone receptors (progesterone receptors): without any significant effects | effect on progesterone receptors (progesterone receptors; [19]): no significant effects | interference with / inhibition of estrogen receptors (estrogen receptor [16]): without significant interference | interference with / inhibition of estrogen receptors (estrogen receptor [16]; [19]): None of the tests showed any measurable estrogen receptor inhibition; also recorded: without significant interference | % Estrogen Receptor Inhibition (estrogen receptor [16]; forearm): 0% | % Estrogen Receptor Inhibition (estrogen receptor [16]; keloid): 0% | % Estrogen Receptor Inhibition (estrogen receptor [16]; keloid, listed as 2-(5-methoxyhept-1-yl)bicyclo[3.3.0]octan-7-one): no measurable | % Estrogen Receptor Inhibition (estrogen receptor [16]; scalp): 0% | effect on estrogen receptors (estrogen receptors): without any significant effects | effect on estrogen receptors (estrogen receptors; [19]): no significant effects | effect on progesterone receptors in melanoma tissue (progesterone receptor [17]): no significant effect | % Block ([18]; patient 1, suprapubic): 43% | % Block ([18]; patient 2, chest): 24% | % Block ([18]; patient 3, neck): 57% | % Block ([18]; patient 4, inguinal groin): 86% | retarding collagen formation through blockage of androgen receptor sites (androgen receptor sites): excellent results in retarding collagen formation through blockage of androgen receptor sites
